Results published in US12616681B2, “Compositions and methods for treating renal injury” (priority 2019, dated 2026).

Legend:
Assay type in all cases: in vivo, C57/BL6 mice
[1] = test system: mice with ischemic AKI (bilateral renal IRI); test: Renal IRI (ischemic AKI) mouse model: renal function markers
Experimental: Briefly, mice were anesthetized with isoflurane using a vaporizer, and bilateral renal arteries were clamped for 30 min (2, 49). After the ischemic time, clamps were released to induce blood reperfusion. […] Serum and kidney tissue were collected 24 h after renal IRI. […] After reperfusion for 24 h, kidney tissues (˜20 mg) were homogenized in cold PBS containing indomethacin (10 μg/mL) and then centrifuged for 10 min at 12,000 rpm. Protein concentrations of supernatant were determined by BCA assay (ThermoFisher Scientific, Rockford, IL). The PGE2 level was measured using a PGE2 ELISA kit (R&D Systems, Minneapolis, MN) in triplicate. PGE2 levels were expressed as nanograms of PGE2 per milligram of protein. Renal function was assessed by determining the serum levels of blood urea nitrogen (BUN; Abcam), serum creatinine (Agilent 6410 LC-MS/MS, Agilent, Santa Clara, CA), lipocalin-2 (R&D Systems), and kidney injury molecule-1 (KIM-1; R&D Systems) after reperfusion for 24 h. Measurement of serum creatinine was by HPLC. Serum creatinine was assessed using an Agilent 6410 LC-MS/MS system coupled with an Agilent 1200 series HPLC system (Agilent). […] The mixture was centrifuged at 13,000 rpm for 10 min after vigorous vortex, and 1 μL of supernatant was then injected into the LC-MS/MS system. The chromatography separation was performed on a Hypersil GOLD C18 column (150×2.1 mm, 3 m, Thermo Scientific) using a mobile phase of 0.1% formic acid solution and acetonitrile [70:30 (vol/vol)]. The flow rate was 0.2 mL/min. Electrospray ionization was performed in the positive ion mode. The capillary voltage was set at 4,000 V. Nitrogen as the nebulizing gas was set at 15 psi, and the drying gas temperature was set at 300° C., with a flow rate of 6 L/min. The multiple-reaction monitoring mode using specific precursor/production transition was used for quantification. […] The peak areas for all analytes were integrated automatically using Agilent Mass Hunter Analysis software (version B.01.04).

[2] = test system: mice with ischemic AKI (bilateral renal IRI); test: Renal IRI model: necrotic and apoptotic cell death, gross pathology; conditions: 24 h after renal IRI; 5 mg/kg ip three times
Excerpt: To evaluate necrosis, 5-μm-thick paraffin sections were stained with hematoxylin and eosin. Tubular injury of individual slides was scored semi-quantitatively according to a scoring system by a pathologist in a blinded manner. The scoring system was as follows: 0, no damage; 1, patchy isolated unicellular necrosis; 2, tubular necrosis <25%; 3, tubular necrosis 25-50%; and 4, tubular necrosis >50%. To analyze the frequency of apo ptosis, 5-μm-thick paraffin sections were subjected to a TUNEL assay (Millipore, Temecula, CA) according to the manufacturer's protocol. TUNEL-positive cells were counted in at least five separate fields (64 magnification) in the outer medulla, and the apoptosis index (in %, number of apoptosis cells/total number of cells) was calculated using GENASIS software.

[3] = test system: mice with ischemic AKI (bilateral renal IRI); test: Renal IRI model: cAMP, AMP and adenosine levels
Experimental: After reperfusion for 24 h, kidney tissues were harvested, homogenized in 10 volumes of 0.1 M HCl, and centrifuged for 10 min at 12,000 rpm. cAMP levels in kidney tissues and serum were measured using a cAMP Complete ELISA kit (Enzo Life Science, Farmingdale, NY). AMP and adenosine in kidney tissue were assessed by Agilent 6410 LC-MS/MS. Serum adenosine was measured using an assay kit (Abnova, Walnut, CA).

[4] = test system: mice with ischemic AKI (bilateral renal IRI); test: Renal IRI model: PGE2 (EP1-EP4) and adenosine A2A receptor expression
Experimental: PGE2 receptors (EP1, EP2, EP3, and EP4) and adenosineA2A receptor mRNA levels were deter-mined by real-time PCR. Their protein levels were determined by Western blot assay and immunofluorescence analysis.

[5] = test system: contrast-induced acute kidney injury (CIAKI) mice; test: CIAKI mouse model: renal function (serum creatinine, NGAL, KIM-1)
Experimental: Female mice were injected with 10 gI/kg of Visipaque (iodixanol) via the tail vein. […] For inhibition of the EP4s, mice were treated with 0.2 mg/kg/day of ONO-AE3-208 by subcutaneous injection for 14 days. Serum and kidney tissue were collected 48 h after the iodixanol injection.
Renal function was assessed by determining the serum levels of creatinine (Arbor Assays, Ann Arbor, MI, USA), NGAL (R&D Systems), and KIM-1 (R&D Systems) at 48 h after the iodixanol injection.

[6] = 24 h after renal IRI, vs IRI-vehicle mice, dosing before and after IRI
[7] = pretreatment, mRNA in kidney tissue

adenosine A2A receptor ([4]; 24 h, vs sham and IRI mice): induced
EP4 receptor mRNA levels ([4]; 24 h post-IRI): significantly increased
levels of EP2 receptors ([4]; 24 h post-IRI): no effect
levels of EP3 receptors ([4]; 24 h post-IRI): no effect
EP4 receptor protein ([4]; 24 h post-IRI, vs vehicle-treated mice): more than twice as high
pre-IRI levels of A2A receptors [4, 7]: increased
pre-IRI levels of EP4 receptors [4, 7]: increased
Structure (SMILES): CCCC[S+]([O-])c1sc2nc(-c3cccs3)cc(-c3ccccc3)c2c1N (stereo not shown) [SW033291]
BUN (serum) [1, 6]: significantly reducing
KIM-1 (serum) [1, 6]: significantly reducing
NGAL (serum) [1, 6]: significantly reducing
creatinine (serum) [1, 6]: significantly reducing
induction of NGAL, KIM-1, and creatinine ([1]; single pre-IRI dose (Pre), time course): notable protection
count of TUNEL-positive apoptotic cells [2]: reducing
histological renal injury score [2]: reducing
tissue congestion in the outer medulla (gross pathology) [2]: ameliorated
IRI-induced decrease of adenosine in the kidney ([3]; 24 h after IRI): reversed
AMP in kidney tissue ([3]; 24 h post-IRI): increased levels
serum adenosine ([3]; 24 h post-IRI): Increased
renal cAMP ([3]; 24 h post-IRI, vs sham mice): elevated over sham mice
serum creatinine, absence or presence of ONO-AE3-208 ([5]; CIAKI mice (FIG. 15E), SW033291 line = CM + SW033291, ONO-AE3-208 line = CM + ONO-AE3-208 + SW033291): 0.50 ± 0.10 mg/dL
serum NGAL, absence or presence of ONO-AE3-208 ([5]; CIAKI mice (FIG. 15F), SW033291 line = CM + SW033291, ONO-AE3-208 line = CM + ONO-AE3-208 + SW033291): 140.41 ± 25.52 ng/mL
serum KIM-1, absence or presence of ONO-AE3-208 ([5]; CIAKI mice (FIG. 15G), SW033291 line = CM + SW033291, ONO-AE3-208 line = CM + ONO-AE3-208 + SW033291): 0.09 ± 0.05 ng/mL
serum creatinine ([5]; CIAKI mice, CM + drug, 48 h after CM (FIG. 11C)): 1.10 ± 0.11 mg/dL
serum NGAL ([5]; CIAKI mice, CM + drug, 48 h after CM (FIG. 11D)): 140.41 ± 25.52 ng/mL
serum KIM-1 ([5]; CIAKI mice, CM + drug, 48 h after CM (FIG. 11E)): 0.43 ± 0.30 ng/mL
